Laboratory results taken from patent US20110092544A1, “FUNGICIDAL PYRIDINES” (E.I. DU PONT DE nemours and company, priority 2008, published 2011).

What was measured:
Assay type in all cases: in vivo
[1] = system: Erysiphe graminis f. sp. tritici; assay: Test A: wheat powdery mildew, preventive spray on wheat seedlings, visual disease rating
Description: (§1) General protocol for preparing test suspensions for Tests A-H: The test compounds were first dissolved in acetone in an amount equal to 3% of the final volume and then suspended at the desired concentration (in ppm) in acetone and purified water (50/50 mix) containing 250 ppm of the surfactant Trem® 014 (polyhydric alcohol esters). The resulting test suspensions were then used in tests A-H. Spraying a 200 ppm test suspension to the point of run-off on the test plants was the equivalent of a rate of 500 g/ha.
The test suspension was sprayed to the point of run-off on wheat seedlings. The following day the seedlings were inoculated with a spore dust of Erysiphe graminis f. sp. tritici (the causal agent of wheat powdery mildew) and incubated in a growth chamber at 20° C. for 8 days, after which time disease ratings were visually made.
(§2) Results for Tests A-H are given in Table A. In the table, a rating of 100 indicates 100% disease control and a rating of 0 indicates no disease control (relative to the controls). A dash (-) indicates no test results. All results are for compounds tested at 200 ppm except where the compound number is followed by “*” which indicates the compound was tested at 40 ppm.

[2] = system: Puccinia recondite f. sp. tritici; assay: Test B: wheat leaf rust, preventive spray on wheat seedlings, visual disease rating
Description: as §1
(§3) The test suspension was sprayed to the point of run-off on wheat seedlings. The following day the seedlings were inoculated with a spore suspension of Puccinia recondite f. sp. tritici (the causal agent of wheat leaf rust) and incubated in a saturated atmosphere at 20° C. for 24 h, and then moved to a growth chamber at 20° C. for 7 days, after which time disease ratings were visually made.
as §2

[3] = system: Septoria tritici; assay: Test C: wheat leaf blotch, preventive spray on wheat seedlings, visual disease rating
Description: as §1
as §3, with “Septoria” for “Puccinia recondite f. sp.”, “blotch)” for “rust)”, “48” for “24”, “and” for “and then”, “19 additional” for “7”
as §2

[4] = system: Septoria nodorum; assay: Test D: wheat glume blotch, preventive spray on wheat seedlings, visual disease rating
Description: as §1
as §3, with “Septoria nodorum” for “Puccinia recondite f. sp. tritici”, “glume blotch)” for “leaf rust)”, “48” for “24”
as §2

[5] = system: Alternaria solani; assay: Test E: tomato early blight, preventive spray on tomato seedlings, visual disease rating
Description: as §1
(§4) The test suspension was sprayed to the point of run-off on tomato seedlings. The following day the seedlings were inoculated with a spore suspension of Alternaria solani (the causal agent of tomato early blight) and incubated in a saturated atmosphere at 27° C. for 48 h, and then moved to a growth chamber at 20° C. for 5 days, after which time disease ratings were visually made.
as §2

[6] = system: Botrytis cinerea; assay: Test F: tomato botrytis, preventive spray on tomato seedlings, visual disease rating
Description: as §1
as §4, with “Botrytis cinerea” for “Alternaria solani”, “botrytis)” for “early blight)”, “in” for “in a”, “20°” for “27°”, “24°” for “20°”, “3 additional” for “5”
as §2

[7] = 40 ppm (compound number followed by *)
[8] = 200 ppm, 100 = 100% disease control, 0 = no control

SMILES	Test A rating (% disease control) [1, 7]	Test B rating (% disease control) [2, 7]	Test C rating (% disease control) [3, 7]	Test D rating (% disease control) [4, 7]	Test E rating (% disease control) [5, 7]	Test F rating (% disease control) [6, 7]	Test A rating (% disease control) [1, 8]	Test B rating (% disease control) [2, 8]	Test C rating (% disease control) [3, 8]	Test D rating (% disease control) [4, 8]	Test E rating (% disease control) [5, 8]	Test F rating (% disease control) [6, 8]	also measured
COc1cc(OC)cc(-c2c(-c3ccc(F)cc3)cnc(C)c2-c2ccc(F)cc2)c1 [Compound 88]	58%	53%	77%	0%	0%	99%	–	–	–	–	–	–	–
CCC(C)c1cnc(C)c(-c2ccc(F)cc2)c1-c1cc(OC)cc(OC)c1 (stereo not drawn) [Compound 63]	–	–	–	–	–	–	78%	96%	79%	0%	74%	97%	–
COc1cc(OC)c(Cl)c(-c2c(-c3ccccc3F)cnc(C)c2-c2c(F)cc(F)cc2F)c1 [Compound 135, 4-(2-chloro-3,5-dimethoxyphenyl)-5-(2-fluorophenyl)-2-methyl-3-(2,4,6-trifluorophenyl)pyridine]	–	–	–	–	–	–	–	–	–	–	–	–	pest or weed control at 40 ppm ([1]; Blumeria graminis, 192 h, 40 ppm (compound number followed by *)): 98%; pest or weed control at 40 ppm ([2]; 192 h, 40 ppm (compound number followed by *)): 100%; pest or weed control at 40 ppm ([3]; Zymoseptoria tritici, 504 h, 40 ppm (compound number followed by *)): 99%; pest or weed control at 40 ppm ([4]; Parastagonospora nodorum, 216 h, 40 ppm (compound number followed by *)): 96%; pest or weed control at 40 ppm ([5]; Alternaria solani, 168 h, 40 ppm (compound number followed by *)): 88%; pest or weed control at 40 ppm ([6]; Botrytis cinerea, 120 h, 40 ppm (compound number followed by *)): 100%
COc1cc(OC)cc(-c2c(C(C)(C)O)cnc(C)c2-c2c(F)ccc(OC)c2F)c1 [Compound 106]	–	–	–	–	–	–	96%	100%	98%	0%	99%	98%	–
COc1cc(OC)cc(-c2c(C(C)C)cnc(C)c2-c2c(F)cc(OC)cc2F)c1 [Compound 75]	99%	100%	96%	99%	100%	99%	–	–	–	–	–	–	–
CCOC(=O)c1cnc(C)c(-c2c(F)cc(OC)cc2F)c1-c1cc(OC)cc(OC)c1 [Compound 70]	–	–	–	–	–	–	94%	95%	93%	0%	79%	97%	–
COc1cc(OC)cc(-c2c(-c3ccc(Cl)nc3)cnc(C)c2-c2c(F)cc(F)cc2F)c1 [Compound 127]	90%	97%	99%	0%	0%	99%	–	–	–	–	–	–	–
COc1ccc(-c2c(C)ncc(C(C)CO)c2-c2cc(OC)cc(OC)c2)cc1 (stereo not drawn) [Compound 82]	–	–	–	–	–	–	97%	98%	95%	69%	98%	98%	–
CCC(O)c1cnc(C)c(-c2c(F)ccc(OC)c2F)c1-c1cc(OC)cc(OC)c1 (stereo not drawn) [Compound 115]	93%	96%	98%	0%	99%	98%	–	–	–	–	–	–	–
COc1cc(OC)c(Cl)c(-c2c(-c3ccccc3F)cnc(C)c2-c2ccc(F)cc2)c1 [Compound 126]	90%	100%	99%	100%	97%	100%	–	–	–	–	–	–	–
COc1cc(OC)cc(-c2c(C(C)O)cnc(C)c2-c2c(F)cc(F)cc2F)c1 (stereo not drawn) [Compound 107]	–	–	–	–	–	–	100%	100%	98%	98%	100%	99%	–
